The test system of this test is colonocytes. Description: In situ apoptosis (TUNEL assay), apoptotic index. The class given is in vivo, rat. Particulars: pectin intake compared to cellulose intake, ACF/promotion stage, radiation study. Here is the method:
Apoptosis was measured by the binding of TdT-mediated UTP-biotin nick end labeling (TUNEL assay) to fragmented pieces of DNA using sections (4 μm) of PFA-fixed, paraffin-embedded tissue. Apoptotic cells with condensed chromatin, apoptotic bodies and intense brown staining were counted in 50 crypt columns for each animal. The apoptotic index is 100 times the mean number of apoptotic cells per crypt column divided by the total number of cells per crypt column. Chang et al., “Predictive value of proliferation, differentiation and apoptosis as intermediate markers for colon tumorigenesis” Carcinogenesis 18:721-730 (1997).
Data were analyzed using ANOVA to determine the effect of diet (FO/P vs. CO/C) on apoptosis, high multiplicity ACF, and proliferative zone (SAS Institute Inc.). Colon tumor incidence was analyzed by Chi square analysis and reported as percentage of rats bearing tumors (SAS Institute Inc.).

This note sets out measurements from US20100272824A1, “COMPOSITIONS AND METHODS FOR PREVENTING AND MONITORING DISEASE” (The Texas A&M University System, priority 2009, published 2010).

With pectin, the apoptosis result was “induced apoptosis”. In addition, the apoptosis result (listed as Pectin) is on record as “induced the levels of apoptosis”.
